Data set [1] deals with T1, pp60^c-src (Homo sapiens, UniProt P12931). Nature of the data set: Cellular Mimetic Src assay (RR-SRC phosphorylation).
Target sequence in this assay (P12931 whole entry): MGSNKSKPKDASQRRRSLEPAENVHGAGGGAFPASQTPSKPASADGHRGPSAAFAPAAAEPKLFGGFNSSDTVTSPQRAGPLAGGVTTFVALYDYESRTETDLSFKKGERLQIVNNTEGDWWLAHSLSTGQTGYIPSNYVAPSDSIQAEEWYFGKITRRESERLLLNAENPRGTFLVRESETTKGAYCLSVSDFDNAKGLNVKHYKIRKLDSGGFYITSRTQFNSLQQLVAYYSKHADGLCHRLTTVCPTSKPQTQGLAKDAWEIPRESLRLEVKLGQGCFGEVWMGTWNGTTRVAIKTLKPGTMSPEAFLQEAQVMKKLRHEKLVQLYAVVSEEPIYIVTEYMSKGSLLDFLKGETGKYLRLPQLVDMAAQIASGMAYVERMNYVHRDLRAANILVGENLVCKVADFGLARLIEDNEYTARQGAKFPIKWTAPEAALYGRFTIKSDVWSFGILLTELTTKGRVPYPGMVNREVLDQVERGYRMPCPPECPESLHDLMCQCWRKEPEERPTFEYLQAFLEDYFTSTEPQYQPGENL
The target of a further data set is p56 lck (Homo sapiens, UniProt P06239). The following applies: analyzed with the tyrosine kinase p56^lck; cited from earlier work.
For data set [2] the following is noted: SCID, mouse, in vivo, ip.
Protocol: These compounds were administered to SCID mice by intraperitoneal administration in tween80:EtOH.
The next data set concerns LA25 cells. As to the kind of experiment: LA25 (ts pp60^v-src transformed NRK) cell growth. The format is cell-based, rat. On the procedure:
(§1) Active Src inhibitors can be studied in a set of side-by-side cell-based assays using normal rat kidney (NRK) cells and a temperature-sensitive pp60^v-Src transformant of this cell line (LA25). The LA25 transformant engages in anchorage- and serum-independent growth at the “permissive” temperature of 33° C. due to activation of pp60^v-src but not at the “non-permissive” temperature of 40° C. at which pp60^v-src is not activated (Li et al., 1996). The use of this pair of closely related cell lines for testing the Src inhibitors at both the permissive and non-permissive temperatures allows one to determine if a given Src inhibitor is blocking cell growth due to specific blockade of the Src signaling pathway, by a different mechanism or by a general cytotoxic effect.
(§2) As shown in this graph the growth of the LA25 cells at the permissive temperature of 33° C. is inhibited by ca. 50% at a 25 μM concentration of 43-meta relative to the LA25 cell growth at the non-permissive 40° C. as a control. […] Since the 43-meta solutions were prepared with a low concentration of DMSO for solubilization, a DMSO control was also run at the same concentration.

A further data set deals with PC-3. As to the kind of experiment: NIH 60-tumor cell panel, PC-3. The class given is cell-based. To be noted: Homo sapiens, NIH prostate cancer cell line, read-out: growth inhibition IC50, PC-3. An excerpt:
The initial non-peptide Src inhibitors have also shown very encouraging results in four different series of cell culture assays. 1) In the NIH 60-tumor cell panel assay, broad activity (as one would expect for a Src inhibitor) was seen against the tumor cell lines, including the prostate lines. […] 3) The Src inhibitors were compared to the cancer drugs etoposide, taxol, doxorubicin and cisplatin in ovarian tumors from three different patients and an abdominal carcinoma from another patient. […] 5) Two of the Src inhibitors were also tested for inhibition of ts v-Src stimulated LA25 cell growth. […] 6) Two of the Src inhibitors were also tested for inhibition of normal rat kidney cell growth. The results are shown in FIG. 16D and illustrate that the inhibitors are cytoprotective for normal cells.

In a further data set the test system is NRK cells. As to the kind of experiment: Normal rat kidney (NRK) cell growth. The format is cell-based. On the procedure: as §1, §2
The target of a further data set is EGFRTK (Homo sapiens, UniProt P00533). As to the kind of experiment: EGFRTK inhibition. The class given is biochemical. To be noted: % inhibition at 10 micromolar compound. An excerpt: Blanks for a particular enzyme indicate that inhibition was not found.
In data set [3] the target is T1, pp60^c-src. The following applies: literature value, cited from earlier work.
Target sequence in this assay (P12931 whole entry, species assumed): as the sequence (P12931 whole entry) above
Where [4] appears, read: read-out: % Inhibition of 2 mM RR-src at Inhibitor Concentration (100 μM).

SMILES strings stand for the structures. Like-named read-outs stand apart in the source and are kept apart here.

Sequence of p56 lck (P06239 whole entry, species assumed): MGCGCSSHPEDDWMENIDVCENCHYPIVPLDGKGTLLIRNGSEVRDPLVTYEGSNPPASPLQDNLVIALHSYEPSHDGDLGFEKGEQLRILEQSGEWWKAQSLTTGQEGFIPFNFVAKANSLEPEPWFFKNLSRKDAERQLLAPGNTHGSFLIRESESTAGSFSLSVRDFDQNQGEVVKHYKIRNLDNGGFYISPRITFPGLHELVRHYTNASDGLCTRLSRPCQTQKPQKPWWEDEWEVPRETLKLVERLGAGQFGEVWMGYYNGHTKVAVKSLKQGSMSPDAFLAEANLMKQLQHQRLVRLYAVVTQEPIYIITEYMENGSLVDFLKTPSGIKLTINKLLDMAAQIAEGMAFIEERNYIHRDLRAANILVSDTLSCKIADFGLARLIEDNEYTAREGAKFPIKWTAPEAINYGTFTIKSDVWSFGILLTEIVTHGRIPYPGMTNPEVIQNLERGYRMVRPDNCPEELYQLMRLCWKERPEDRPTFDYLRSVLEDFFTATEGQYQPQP
Sequence of EGFRTK (P00533 25-1210): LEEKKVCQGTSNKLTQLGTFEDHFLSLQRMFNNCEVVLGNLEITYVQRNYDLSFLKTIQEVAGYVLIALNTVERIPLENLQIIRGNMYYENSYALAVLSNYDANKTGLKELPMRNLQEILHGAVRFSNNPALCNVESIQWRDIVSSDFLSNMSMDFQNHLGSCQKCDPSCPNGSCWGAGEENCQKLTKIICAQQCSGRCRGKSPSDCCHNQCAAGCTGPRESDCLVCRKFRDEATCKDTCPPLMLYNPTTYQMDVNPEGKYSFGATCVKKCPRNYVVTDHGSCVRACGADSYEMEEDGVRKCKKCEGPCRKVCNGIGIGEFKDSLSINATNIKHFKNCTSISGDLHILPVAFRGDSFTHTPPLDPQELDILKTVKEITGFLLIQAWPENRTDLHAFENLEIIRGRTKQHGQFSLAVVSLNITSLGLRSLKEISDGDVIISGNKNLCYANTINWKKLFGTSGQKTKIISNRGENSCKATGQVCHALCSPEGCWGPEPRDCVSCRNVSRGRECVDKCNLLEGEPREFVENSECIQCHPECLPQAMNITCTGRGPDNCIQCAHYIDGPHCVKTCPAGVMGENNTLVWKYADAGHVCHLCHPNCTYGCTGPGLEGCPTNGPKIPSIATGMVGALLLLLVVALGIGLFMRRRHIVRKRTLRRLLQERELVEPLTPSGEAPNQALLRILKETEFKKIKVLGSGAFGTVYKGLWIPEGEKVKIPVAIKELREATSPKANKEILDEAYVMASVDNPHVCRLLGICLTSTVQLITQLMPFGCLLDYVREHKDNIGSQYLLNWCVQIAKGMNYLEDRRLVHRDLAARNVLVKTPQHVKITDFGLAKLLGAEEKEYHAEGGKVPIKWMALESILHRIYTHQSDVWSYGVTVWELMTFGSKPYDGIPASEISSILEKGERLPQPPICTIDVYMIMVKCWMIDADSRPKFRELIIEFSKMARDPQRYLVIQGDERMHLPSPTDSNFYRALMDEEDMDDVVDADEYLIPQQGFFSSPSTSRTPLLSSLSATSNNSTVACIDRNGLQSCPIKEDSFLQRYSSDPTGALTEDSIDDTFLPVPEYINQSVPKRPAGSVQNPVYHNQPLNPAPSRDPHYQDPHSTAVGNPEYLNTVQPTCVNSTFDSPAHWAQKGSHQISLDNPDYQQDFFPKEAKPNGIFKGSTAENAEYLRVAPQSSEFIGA

As to `Cc1cc(O)c2c(c1)C(=O)c1cc(O)cc(O)c1C2=O` [Emodin, reference compound], at pp60^c-src [1] (read-out: % Inhibition at 100 μM (std. dev.)), the inhibition at 100 µM was found to be 22%. In addition, at p56 lck, the “mode of inhibition with respect to ATP” value is on record as “ATP-competitive”.

On to `O=C(NCc1cccc(O)c1)c1cc2cc(F)ccc2[nH]1` [Compound 1a], for which, in data set [2], the “toxicity in mice (weight loss)” value is given as “less toxic in mice than compound 2k from Example 4”.

What is called Ki is the dissociation constant of the complex between target and ligand, obtained from inhibition or displacement. For the compound `O=C(Nc1cccc(O)c1)c1cc2ccc(O)cc2cc1O` [Compound 43-meta], the “inhibition of v-Src induced LA25 cell growth” value with LA25 cells is recorded as “specifically blocked the v-Src induced cell growth”. Further, in the data set on LA25 cells (Rattus norvegicus, NRK, 25 μM, permissive 33° C. relative to non-permissive 40° C.), the inhibition at 25 µM was approximately 50%. Moreover, the IC50 was approximately 25 µM in the data set on LA25 cells (Rattus norvegicus, NRK, read-out: IC50 for blocking pp60^v-src stimulated cell proliferation); 18 µM at pp60^c-src [1]; 19 µM in the data set on PC-3. Further, the Ki at pp60^c-src [1] (K1, Table V) was found to be 10 µM. In addition, the inhibition at 100 µM on pp60^c-src [1] (setting [4]) was determined as 89%. Also, the “inhibition of normal rat kidney (parent non-transformed) cell growth” value in the data set with NRK cells was “without inhibiting the normal growth of the parent non-transformed cells”. Besides, the “cell toxicity (basal growth of NRK and LA25 cells)” value with NRK cells (concentration increased up to 400 μM) is reported as “lack of cell toxicity”.

The melting point is the temperature, or range, at which the solid turns liquid. In turn, `O=C(NCc1cccc(F)c1)c1cc2cc(F)ccc2[nH]1` [Compound 1z] returned a melting point of 239 to 241 °C. Further, on EGFRTK, the “EGFRTK @ 10 μm” value was found to be 26%.

For the compound `CCOc1cc(/C=C(\C#N)C(N)=O)cc(CSc2ccccc2)c1O` [drawing 65, ST 638, reference compound], on pp60^c-src [1] (setting [4]), the inhibition at 100 µM was determined as 37%. Moreover, the IC50 on pp60^c-src [3] (Table V, read-out: Lit. IC50) was 18 µM.

As for `O=C(Nc1cccc(O)c1)c1cc2cccc(O)c2cc1O` [Compound 45], the “inhibition of v-Src induced LA25 cell growth” value with LA25 cells was “specifically blocked the v-Src induced cell growth”. Also, the results for the IC50 at pp60^c-src [1] and in the data set with PC-3 were 170 µM and 15 µM, respectively. At pp60^c-src [1] (increasing ATP concentration up to 1 mM), the “mode of inhibition with respect to ATP” value came to 45 NON-ATP. Also, the inhibition at 100 µM on pp60^c-src [1] (setting [4]) was determined as 51%. For the same compound, the “inhibition of normal rat kidney (parent non-transformed) cell growth” value in the data set with NRK cells is listed as “without inhibiting the normal growth of the parent non-transformed cells”.

As to `CCOc1cc(/C=C(\C#N)C(N)=O)cc(CSc2ccccc2)c1O` [ST-638, reference compound], on pp60^c-src [1] (Table IX, hydroxynaphthalene derivatives and published inhibitors), the “% Inhibition at 100 μM (std. dev.)” value is recorded as 37 (+/−5) %. In addition, the IC50 on pp60^c-src [3] (Table IX, read-out: IC50 (μM), Lit) is 18 µM.

The record behind these values is patent US7772216B2, “Protein kinase and phosphatase inhibitors and methods for designing them” (The Research Foundation of State University of New York, priority 2001, dated 2010).
